Measured values published in patent USRE46943E1, “Radioprotector compounds and methods” (PETER MACCALLUM CANCER INSTITUTE, priority 2010, dated 2018).

Tests used:
[1] = tested on: oral mucosa of mouse tongue; experiment: Topical radioprotection of the oral mucosa of mouse tongue (mucosal ulceration endpoint); assay type: in vivo, mice of the inbred C3H/Neu strain
Description: Mice of the inbred C3H/Neu strain were sourced from a breeding colony at the Medical Faculty Carl Gustav Cams, Dresden, Germany. The animals were bred and housed under specified pathogen-free conditions. Housing was under controlled conditions of humidity (30-50%) and temperature (21° C.-24° C.). An automated light programme regulated a 12/12-hour light/dark rhythm with lights on from 6 am to 6 pm. The mice were kept in size 3 Macrolon cages, maximum of 10 per cage, on sawdust bedding. Standard mouse diet (Altromin 1326, Altrogge) and filtered city tap water from standard perspex drinking bottles were provided ad libitum.
A 3 mm×3 mm field at the middle of the lower surface of the mouse tongue was irradiated with 25 kV x-rays from a Darpac 150-MC device (Forward Raytech Ltd, Swinburne, UK) operated with a tube current of 20 milliamps yielding a dose rate of 3.78 Gy per minute and a focus-skin distance of 15 cm. Anaesthetised mice (sodium pentabarbitone; 60 mg per kg) were placed in a supine position in the central cylindrical hole (diameter 25 mm) of a pre-warmed aluminium block (approximately 35° C.). The tongue was guided through a hole (diameter 3 mm) in roof of the block by use of forceps, and the upper surface of the tongue was fixed to the outer surface of the block with double-sided adhesive tape. The head was supported by a polystyrene wedge to avoid traction of the base of the tongue and consequent hypoxia. The collimator was a 1 mm thick aluminium plate with a 3×3 mm^2 window positioned centrally over the lower surface of the tongue. Groups of 10 mice, were irradiated with 5 different doses in the range of 10-20 Gy.
One hour prior to irradiation, 10 microlitres of formulation was applied to the lower surface of the tongue of anaesthetised mice using a displacement micropipette. Thirty minutes later, a second 10 microlitre aliquot of the formulation was applied and the mice irradiated thirty minutes later.
Stock solutions of the appropriate drug in propylene glycol or water were diluted with an aqueous solution of Poloxamer 407 gel (BASF Lutrol F 127) and/or a solution of hydroxypropyl cellulose (approx average MW 80,000; Aldrich cat no 435007) in propylene glycol and with water and/or propylene glycol, producing each of two formulations: • Formulation 1—gel, which contained 10 or 30 mM drug in 20% Poloxamer 407 and 1% hydroxylpropyl cellulose in 30% propylene glycol in water, and • Formulation 2—Liquid, which contained 10, 30 or 60 mM drug in propylene glycol […] of 2% hydroxypropyl cellulose. Scoring and Data Analysis
At various times after irradiation, the lower surface of the tongue of anaesthetised mice was examined daily. The quantal endpoint used was mucosal ulceration, corresponding to confluent mucositis RTOG/EORTC grade 3. The data plotted in the example figures is the percentage of a group of 10 mice in which the endpoint of mucosal ulceration was scored for at least 2 consecutive days. Radiation dose effect curves were generated with a single parameter sigmoidal relationship (logistic function
[formula] using the Prism 5.0 curve-fitting programme to generate the ED50 value, which corresponds to the interpolated radiation dose at which 50% of the mice in the group reached the mucosal ulceration endpoint.

[2] = tested on: transformed human keratinocyte cell line (FEP 1811); experiment: Clonogenic survival cell culture assay for cytotoxicity; assay type: cell-based; details: Homo sapiens, Keratinocyte, light or radiation study; un-irradiated keratinocytes, one hour drug exposure, colonies counted after eight days; read-out: C50 (concentration of radioprotector that results in 50% clonogenic survival)
How it was run: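 Mid-log monolayers exposed to test drug for 1 h, then pronase-dispersed and plated; colonies counted after 8 days. For […], irradiation at 0.6 Gy per minute began 30 min after drug addition, with total drug exposure held at 60 min before plating for clonogenic survival.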

[3] = 30 mM drug in Formulation 2, topical to tongue
[4] = 30 mM drug in Formulation 2 vs vehicle
[5] = 10 mM drug in Formulation 1, topical to tongue
[6] = 10 mM drug in Formulation 1 vs vehicle

Q: How did the “ED50 (radiation dose at which 50% of the mice reached mucosal ulceration)” value ([1]; 60 mM drug in Formulation 3, topical to tongue) turn out when `OC1CCN(c2ccc3nc(-c4ccc5nc(-c6cc7ccccc7cn6)[nH]c5c4)[nH]c3c2)CC1` [Example 23, 3-(5′-(5″-(4′″-Hydroxypiperidin-1′″-yl)benzimidazol-2″-yl)benzimidazol-2′-yl)isoquinoline] was run?
A: The value was 14.6 Gy.

Q: What about the dose reduction factor ([1]; 60 mM drug in Formulation 3 vs blank formulation) of the same molecule?
A: The dose reduction factor was 1.13.

Q: What about the IC50 [2] of the same molecule?
A: The IC50 was 589 µM.

Q: `Cc1ccc(-c2nc3ccc(-c4nc5ccc(N6CCN(C)CC6)cc5[nH]4)cc3[nH]2)nc1` [Example 6, 5-Methyl-2-(5′-(5″-(4′″-methylpiperazin-1′″-yl)benzimidazol-2″-yl)benzimidazol-2′-yl)pyridine] was tested. Which “ED50 (radiation dose at which 50% of the mice reached mucosal ulceration)” value [1, 3] did it give?
A: Its value is 14.6 Gy.

Q: What about the dose reduction factor [1, 4] of the same molecule?
A: The dose reduction factor was 1.13.

Q: What about the IC50 [2] of the same molecule?
A: The IC50 was 58.4 µM.

Q: Which results are given for `CN1CCN(c2ccc3nc(-c4ccc5nc(-c6ccccn6)[nH]c5c4)[nH]c3c2)CC1` [Example 2, 2-(5′-(5″-(4′″-Methylpiperazin-1′″-yl)benzimidazol-2″-yl)benzimidazol-2′-yl)pyridine]?
A: ED50 (radiation dose at which 50% of the mice reached mucosal ulceration) [1, 5]: 14.4 Gy; dose reduction factor [1, 6]: 1.20; IC50 [2]: 101 µM

Q: With `c1ccc(-c2nc3ccc(-c4nc5ccc(N6CCOCC6)cc5[nH]4)cc3[nH]2)nc1` [Example 19, 2-(5′-(5″-Morpholinobenzimidazol-2″-yl)benzimidazol-2′-yl)pyridine] as the molecule, how does the “ED50 (radiation dose at which 50% of the mice reached mucosal ulceration)” value [1, 5] read?
A: Its value is 14.3 Gy.

Q: And the dose reduction factor [1, 6]?
A: Its dose reduction factor is 1.19.

Q: And the “ED50 (radiation dose at which 50% of the mice reached mucosal ulceration)” value [1, 3]?
A: The value was 15.2 Gy.

Q: What about the dose reduction factor [1, 4] of the same molecule?
A: Its dose reduction factor is 1.18.

Q: And the IC50 [2]?
A: Its IC50 is 150 µM.
